Test results from patent publication US20220249504A1, “LONGEVITY SIGNATURES AND THEIR APPLICATIONS” (The Brigham and Women's Hospital, Inc., priority 2019, published 2022).
Entries after “also recorded” stand apart in the source; their conditions may differ.

Key:
Format in all cases: in vivo, mouse
longevity signatures = assay: GSEA-based association of hepatic gene expression response (RNAseq, UM-HET3 mice on compound diet for 1 month) with longevity signatures; details: UM-HET3 male mice, compound in diet for 1 month, liver RNAseq
Excerpt: Four-month old UM-HET3 mice were subjected to diets for 1 month, followed by gene expression analyses.
To validate the above approach and predictions, specific gene expression datasets were chosen from the GEO database that correspond to the effect of certain interventions considered to be health- and lifespan-extending or shortening on mouse liver (FIG. 16). […] UM-HET3 mice were then subjected to these compounds for 1 month, at which point the mice were sacrificed and subjected to gene expression analysis. Finally, the association GSEA-based test was applied to validate the findings (FIG. 16).
Second, diets were prepared for 24 of the identified compounds. These diets were administered to mice for 1 month, and ensuing gene expression changes were monitored. […]
For samples corresponding to lifespan-extending interventions, paired-end sequencing with 100 bp read length was performed on illumine HiSeq2000 platform. For samples corresponding to predicted compounds, libraries were prepared as described in (Hashimshony et al., 2016) and sequenced with 100 bp read length option on the Illumina HiSeq2500. […] Processed/cleaned reads were then mapped with STAR (version 2.5.2b) (Dobin et al., 2013) and counted via featureCounts (Liao et al., 2014). […]

C57BI/6 mice = assay: Lifespan of old (2-year-old) C57BL/6 mice given a diet containing the compound
Method: (§1) Briefly, 24-28 mice per intervention were used, with an approximately equal number of males and females. Mice were first assessed with regard to frailty index and gait speed, and then randomized to make sure the experimental and control groups had the same average frailty index and gait speed. Mice were then given a diet containing a compound of interest. […] Mice were monitored daily until they died. A separate cohort of old mice was assessed for frailty index and gait speed.
Interventions were predicted in a screen based on the gene expression longevity signatures that we developed. The predicted interventions were then verified for gene expression responses in human and mouse primary cell culture (hepatocytes) and in live mice (after mice were fed for 1 month with the diets containing these interventions). The interventions that passed these tests were further assessed for the effect on lifespan of 2-year-old C57BI/6 mice. Older mice (2-year-old) were chosen for this experiment in order to mimic the effect of giving interventions to human subjects in their second half of life.
as §1, with “females. They” for “females. Mice”

C57BL/6 mice [1] = assay: Frailty index of old C57BL/6 mice on compound diet
Method: as §1
as §1, with “females. They” for “females. Mice”

[2] = test system: immune cells in the spleen; assay: Population of immune cells in the spleen by FACS; details: 27-month-old C57BI/6 females
Method: Population of immune cells in the spleen is not altered by Selumetinib (n=7 for Control, n=12 for Selumetinib). 27-month-old C57BI/6 females were used. Cells were analyzed by FACS: B-cells are CD45+CD19+, T-cells are CD45+CD3+, and myeloid cells are CD45+CD11b+.

C57BL/6 mice [3] = assay: Gait speed of old C57BL/6 mice on compound diet; details: 31-month-old C57BL/6 male mice
Method: as §1
as §1, with “females. They” for “females. Mice”

C57BL/6 mice [4] = assay: Glucose tolerance in old C57BL/6 mice on compound diet; details: old C57BL/6 mice at the dose given in diet (AZD-8055: 23-month-old, treated 2.5 months)
Method: 23-month-old mice were treated for 2.5 months prior to analyses.

| SMILES | Association of hepatic gene expression response with longevity signatures (longevity signatures) | Effect on lifespan (C57BI/6 mice; C57BL/6 mice (Selumetinib: males and females combined), given late in life, ad libitum (Selumetinib 100 mg/kg of diet, Celastrol 8 mg/kg of food)) | Effect on lifespan (C57BI/6 mice; independent cohort of female C57BL/6 mice, Selumetinib 100 mg/kg of diet) | Effect on frailty index (C57BL/6 mice [1]; 31-month-old C57BL/6 female mice) | Relative populations of immune cells in the spleen (B-cells, T-cells, myeloid cells) [2] | Effect on lifespan (C57BI/6 mice; C57BL/6 male mice, given late in life, ad libitum in diet (AZD-8055 20 mg/kg of food, LY294002 600 mg/kg, KU-0063794 10 mg/kg of diet)) | Effect on frailty index (C57BL/6 mice [1]; 31-month-old C57BL/6 male mice) | Effect on gait speed (C57BL/6 mice [3]) | Effect on glucose tolerance (C57BL/6 mice [4]) |
| --- | --- | --- | --- | --- | --- | --- | --- | --- | --- |
| C1COC(NC(C2CC2)C2CC2)=N1 [rilmenidine, N-(Dicyclopropylmethyl)-4,5-dihydro-1,3-oxazol-2-amine] | positive association with some of the signatures, including CR and GH deficiency, but not with the signatures associated with the lifespan extension effect |  |  |  |  |  |  |  |  |
| Cn1cnc2c(F)c(Nc3ccc(Br)cc3Cl)c(C(=O)NOCCO)cc21 [Selumetinib, 6-(4-Bromo-2-chloroanilino)-7-fluoro-N-(2-hydroxyethoxy)-3-methylbenzimidazole-5-carboxamide] |  | extends lifespan | extends lifespan | improves | not altered; also recorded: does not alter |  |  |  |  |
| COc1ccc(-c2ccc3c(N4CCOCC4)nc(N4C[C@@H](C)O[C@@H](C)C4)nc3n2)cc1CO [KU-0063794, rel-5-[2-[(2R,6S)-2,6-dimethyl-4-morpholinyl]-4-(4-morpholinyl)pyrido[2,3-d]pyrimidin-7-yl]-2-methoxybenzenemethanol] | consistent positive association with all lifespan-extending interventions, except for rapamycin |  |  |  |  | extend lifespan | improved | improved | No effect; also recorded: did not have a significant effect |
